# In patent US20200247897A1, “THERAPEUTIC ANTIBODIES BASED ON MUTATED IGG HEXAMERS” (GENMAB B.V., priority 2017, published 2020):
# “Also recorded” adds a separate entry of the source.
# Tests used:
# [1] = tested on: SK-MES-1 human lung cancer cells; assay: Subcutaneous SK-MES-1 lung cancer xenograft model; conditions: Example 33: 0.5, 2, 10 mg/kg i.v., twice Q7D
# Method: The cells were maintained in vitro as a monolayer culture in MEM medium supplemented with 10% fetal bovine serum and 0.01 mM NEAA at 37° C. in an atmosphere of 5% CO2 in air. At day 0, adherent cells in an exponential growth phase were harvested by trypsin-EDTA treatment. 5×10^6 cells were injected in a volume of 100 μL PBS into the flank of 6-8 weeks old female BALB/c mice (Shanghai Laboratory Animal Center). Mouse handling and tumor volume measurements were performed as described in Example 30. Twenty-one days after tumor inoculation, the mean tumor size reached 161 mm^3 and mice were assigned into groups using randomized block design and treatments were started. Mice were treated twice according to a Q7D regimen by i.v. injection of 200 μg (10 mg/kg), 40 μg (2 mg/kg) or 10 μg (0.5 mg/kg) antibody in 10 μL PBS per g body weight. Mice in the control group were treated in parallel with 200 μg (10 mg/kg) IgG1-b12. After tumor inoculation, welfare of the animals was checked daily and tumor volumes were measured twice weekly.
# Cell culturing, tumor cell inoculation, mice handling, tumor outgrowth measurements and endpoint determination were performed as described in Example 33.
# [2] = tested on: BxPC-3 pancreatic cancer cells; assay: 3-days CellTiter-Glo viability assay, BxPC-3
# [3] = tested on: HCT-15 human colon cancer cells; assay: Subcutaneous HCT-15 colon cancer xenograft model; assay type: in vivo, BALB/c nude mice; conditions: Example 30: 0.5, 2, 10 mg/kg i.v., twice Q7D
# Method: (§1) The care and use of animals during the study were conducted in accordance with the regulations of the Association for Assessment and Accreditation of Laboratory Animal Care (AAALAC). Tumor volumes were measured twice weekly in two dimensions using a caliper, and the volume was expressed in mm^3 using the formula: V=0.5 a×b2 where a and b are the long and short diameters of the tumor, respectively.
# as §1, with “a×b^2” for “a×b2”
# [4] = tested on: SW480 human colon cancer cells; assay: Subcutaneous SW480 colon cancer xenograft model; assay type: in vivo, NOD/SCID mice; conditions: 0.5, 2, 10 mg/kg i.v., twice Q7D
# Method: 1×10^7 cells were injected in a volume of 200 μL PBS with Matrigel (1:1) into the flank of 6-8 weeks old female NOD/SCID mice (Beijing HFK Bioscience).
# [5] = tested on: COLO 205 human colon cancer cells; assay: Subcutaneous COLO 205 colon cancer xenograft model; assay type: in vivo, SCID mice
# Method: The in vivo anti-tumor efficacy of different anti-DR5 antibodies and the combination of DR5-01+DR5-05 antibodies with hexamerization enhancing mutation was evaluated in a subcutaneous model with COLO 205 human colon cancer cells. At day 0, cells were harvested by pooling the culture supernatant containing non-adherent cells and trypsinized adherent cells. 3×10^6 cells were injected in a volume of 200 μL PBS into the flank of 6-11 weeks old female SCID mice (C.B-17/IcrHan®Hsd-Prkdc^scid; Harlan). All experiments and animal handlings were approved by the local authorities, and were conducted according to all applicable international, national and local laws and guidelines. Tumor development was monitored at least twice per week by caliper (PLEXX) measurement as 0.52×(length)×(width)^2. […] Mice were treated by intraperitoneal (i.p.) injection of 100 μg antibody in 200 μL PBS on day 6 and 13 (5 mg/kg per dose). To check for correct antibody administration, blood samples were obtained for IgG serum determination three days after the first dose. […] Tumors were measured until 16 weeks after tumor inoculation.
# Mice were treated by intravenous (i.v.) injection of 40 μg (2 mg/kg), 10 μg (0.5 mg/kg) or 2 μg (0.1 mg/kg) antibody in 100 μL PBS on day 10. Mice in the control group were treated with 40 μg (2 mg/kg) IgG1-b12. Tumors were measured until 17 weeks after tumor inoculation.
# At day 9, the average tumor volume was measured and the mice were sorted into groups with equal tumor size variance. Mice were treated by intravenous (i.v.) injection of 10 μg (0.5 mg/kg) antibody in 200 μL PBS on day 9. Mice in the control group were treated with 10 μg (0.5 mg/kg) IgG1-b12.
# [6] = tested on: COLO 205 human colon cancer cells; assay: 3-days CellTiter-Glo viability assay, COLO 205; assay type: cell-based
# Method: COLO 205 cells were harvested by pooling the culture supernatant containing non-adherent cells and trypsinized adherent cells. HCT 116 cells were harvested by trypsinization. […] In samples that were treated with a combination of two antibodies, the total antibody concentration in the assay was the same as in the samples that were treated with single antibodies. […] From the kit, 20 μL luciferin solution reagent was added per well and mixed by shaking the plate for 2 minutes at 500 rpm. Next, plates were incubated for 1.5 hours at 37° C. 100 μL supernatant was transferred to a white OptiPlate-96 (Perkin Elmer, Cat nr 6005299) and luminescence was measured on an EnVision Multilabel Reader (PerkinElmer). Data were analyzed and plotted using non-linear regression (sigmoidal dose-response with variable slope) using GraphPad Prism software.
# The antibodies with and without the E430G mutation were tested as single agent and as combinations of the two non-crossblocking antibodies. COLO 205 cells were harvested as described in Example 8.
# [7] = tested on: PANC-1 pancreatic cancer cells; assay: 3-days CellTiter-Glo viability assay, PANC-1; assay type: cell-based, human; conditions: 10 μg/mL
# [8] = tested on: HCT-15 colon cancer cells; assay: 3-days CellTiter-Glo viability assay, HCT-15; conditions: 4 μg/mL
# [9] = 10 μg/mL, F(ab')2 goat-anti-human IgG, listed as IgG1-DR5-CONA
substance,measurement,setting,value
"IgG1-CONA: reference anti-DR5 antibody based on U.S. Pat. No. 7,521,048 B2 and WO2010/138725",tumor growth (mean tumor volume) versus IgG1-b12,[1],only had a significant effect compared to IgG1-b12 at 10 mg/kg (p<0.01) and 2 mg/kg (p<0.05) but not at 0.5 mg/kg
same,effect of secondary crosslinker on killing of BxPC-3 cells,[2]; 4 μg/mL,enhanced by the presence of a secondary crosslinker
same,killing of BxPC-3 cells in absence of Fc crosslinker,[2]; 10 μg/mL,did not induce target cell killing in the absence of an Fc crosslinker
same,killing of BxPC-3 cells in presence of Fc crosslinker,[2]; [9],Fc crosslinking induced killing; also recorded: only induced killing in the presence of Fc crosslinker
same,tumor growth (mean tumor volume),[3],did not
same,tumor growth (mean tumor volume) versus IgG1-b12,[4],"only better than IgG1-b12 at the highest doses (10 mg/kg and 2 mg/kg p<0.01), but not at 0.5 mg/kg"
same,tumor growth (mean tumor volume),[5]; Example 26: 5 mg/kg i.p. on day 6 and 13,"strongly inhibited tumor growth compared to IgG1-b12, but did not result in complete tumor abrogation"
same,"tumor growth progression versus IgG1-b12 (Kaplan-Meier, cutoff >500 mm^3)",[5]; Example 27: 0.5 mg/kg and 2 mg/kg,significantly inhibited tumor growth progression compared to the negative control antibody IgG1-b12
same,tumor regression (mean tumor volume),[5]; Example 27: single dose 0.5 mg/kg i.v. day 10,regression was incomplete with recurring tumor outgrowth in all mice
same,tumor regression (mean tumor volume),[5]; Example 27: single dose 2 mg/kg i.v. day 10,almost all (7/8) mice
same,killing of COLO 205 cells in presence of Fc crosslinker,[6]; [9],Fc crosslinking induced killing; also recorded: only induced killing in the presence of Fc crosslinker
same,killing of COLO 205 cells in absence of Fc crosslinker,"[6]; 10 μg/mL, adherent cells",did not induce target cell killing in the absence of an Fc crosslinker
same,killing of adherent (attached) COLO 205 cells (% viable cells),"[6]; cells adhered overnight before adding antibody, dilution series",not able to kill attached COLO 205 colon cancer cells
same,killing of PANC-1 cells in absence of Fc crosslinker,[7],did not induce target cell killing in the absence of an Fc crosslinker
same,effect of secondary crosslinker on killing of HCT15 cells,[8],enhanced by the presence of a secondary crosslinker
